The values below come from PubChem BioAssay AID330 (DTP/NCI, 2004).

For this assay, the system named is P388 leukemia ip, CD2F1 mice, survival T/C. The experiment in a line: NCI In Vivo Anticancer Drug Screen. Data for tumor model P388 Leukemia (intraperitoneal) in CD2F1 (CDF1) mice. The settings on record: endpoint: median survival time, higher = longer survival. The method, boiled down:
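Mice carrying the transplanted tumor received test compound or vehicle. Survival was recorded in each group, and the value is the treated-group measurement divided by that of the vehicle-treated control group.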

Where [1] appears, read: dose: 4.0 mg/kg/injection, schedule: Q01DX009 (ip), vehicle: saline.
[2] abbreviates: dose: 60.0 mg/kg/injection, schedule: Q01DX005 (ip), vehicle: saline with Tween-80.
Setting [3] is: dose: 120.0 mg/kg/injection, schedule: Q01DX005 (ip), vehicle: saline with Tween-80.

Values joined by “and” are separate entries in the source; they are usually repeats but may differ in a detail not shown here. Identical values can stand only once. Inconclusive results and toxic doses are left out.

Regarding `O=C(O)CCCc1ccc(N(CCCl)CCCl)cc1`, the T/C is 106 % of control (dose: 1.0 mg/kg/injection, schedule: Q01DX005 (ip), vehicle: saline with Tween-80); 109 % of control (dose: 1.0 mg/kg/injection, schedule: Q03HX024 (ip), vehicle: saline); 113 % of control and 119 % of control and 121 % of control (dose: 1.25 mg/kg/injection, schedule: Q01DX005 (ip), vehicle: saline with Tween-80); 117 % of control (dose: 1.3 mg/kg/injection, schedule: Q01DX009 (ip), vehicle: saline + alcohol); 113 % of control (dose: 2.0 mg/kg/injection, schedule: Q01DX005 (ip), vehicle: saline with Tween-80); 123 % of control (dose: 2.0 mg/kg/injection, schedule: Q03HX016 (ip), vehicle: saline). Moreover, the T/C runs as follows: (dose: 2.0 mg/kg/injection, schedule: Q03HX024 (ip), vehicle: saline) 163 % of control; (dose: 2.0 mg/kg/injection, schedule: Q04DX003 (ip), vehicle: Klucel (hydroxypropylcellulose) (HPC)) 110 % of control; (dose: 2.2 mg/kg/injection, schedule: Q01DX009 (ip), vehicle: saline + alcohol) 120 % of control; (dose: 2.59 mg/kg/injection, schedule: Q04DX002 (ip), vehicle: saline with Tween-80) 114 % of control; (dose: 3.24 mg/kg/injection, schedule: Q01DX009 (ip), vehicle: Klucel (hydroxypropylcellulose) (HPC)) 160 % of control; (dose: 3.6 mg/kg/injection, schedule: Q01DX009 (ip), vehicle: saline + alcohol) 115 % of control. Also, the T/C runs as follows: (dose: 3.75 mg/kg/injection, schedule: Q01DX009 (ip), vehicle: Klucel (hydroxypropylcellulose) (HPC)) 118 % of control; under setting [1], 120 % of control; (dose: 4.0 mg/kg/injection, schedule: Q01DX009 (sc), vehicle: saline) 118 % of control; (dose: 4.0 mg/kg/injection, schedule: Q03HX008 (ip), vehicle: saline) 150 % of control; (dose: 4.0 mg/kg/injection, schedule: Q03HX016 (ip), vehicle: saline) 204 % of control; (dose: 4.0 mg/kg/injection, schedule: Q04DX003 (ip), vehicle: Klucel (hydroxypropylcellulose) (HPC)) 111 % of control. Also, the T/C by setting is: (dose: 4.32 mg/kg/injection, schedule: Q04DX002 (ip), vehicle: saline with Tween-80) 119 % of control; (dose: 4.5 mg/kg/injection, schedule: Q01DX009 (ip), vehicle: saline + alcohol) 153 % of control; (dose: 5.0 mg/kg/injection, schedule: Q01DX009 (ip), vehicle: saline + alcohol) 154 % of control; (dose: 5.4 mg/kg/injection, schedule: Q01DX009 (ip), vehicle: Klucel (hydroxypropylcellulose) (HPC)) 180 % of control; (dose: 6.7 mg/kg/injection, schedule: Q01DX009 (ip), vehicle: saline + alcohol) 180 % of control; (dose: 7.5 mg/kg/injection, schedule: Q01DX009 (ip), vehicle: Klucel (hydroxypropylcellulose) (HPC)) 122 % of control. Besides, the T/C reads like this: (dose: 8.0 mg/kg/injection, schedule: Q01DX005 (ip), vehicle: saline with Tween-80) 186 % of control; (dose: 8.0 mg/kg/injection, schedule: Q01DX009 (ip), vehicle: saline) 170 % of control; (dose: 8.0 mg/kg/injection, schedule: Q01DX009 (sc), vehicle: saline) 118 % of control; (dose: 8.0 mg/kg/injection, schedule: Q03HX016 (ip), vehicle: saline) 200 % of control; (dose: 8.0 mg/kg/injection, schedule: Q03HX024 (ip), vehicle: saline) 90 % of control; (dose: 8.0 mg/kg/injection, schedule: Q04DX003 (ip), vehicle: saline) 113 % of control. Further, the T/C reads like this: (dose: 8.0 mg/kg/injection, schedule: Q04DX003 (ip), vehicle: water) 113 % of control; (dose: 9.0 mg/kg/injection, schedule: Q01DX009 (ip), vehicle: Klucel (hydroxypropylcellulose) (HPC)) 152 % of control; (dose: 10.0 mg/kg/injection, schedule: Q01DX009 (ip), vehicle: saline + alcohol) 166 % of control and 172 % of control and 183 % of control; (dose: 10.0 mg/kg/injection, schedule: Q01DX009 (ip), vehicle: saline with Tween-80) 160 % of control; (dose: 15.0 mg/kg/injection, schedule: Q01DX009 (ip), vehicle: Klucel (hydroxypropylcellulose) (HPC)) 115 % of control; (dose: 15.0 mg/kg/injection, schedule: Q01DX009 (ip), vehicle: saline with Tween-80) 173 % of control. The T/C (dose: 16.0 mg/kg/injection, schedule: Q01DX001 (ip), vehicle: saline) is 113 % of control; the T/C (dose: 16.0 mg/kg/injection, schedule: Q01DX001 (sc), vehicle: saline) was 104 % of control; the T/C (dose: 16.0 mg/kg/injection, schedule: Q01DX005 (ip), vehicle: saline with Tween-80) is 176 % of control; the T/C (dose: 16.0 mg/kg/injection, schedule: Q01DX009 (sc), vehicle: saline) was 122 % of control; the T/C (dose: 16.0 mg/kg/injection, schedule: Q03HX008 (ip), vehicle: saline) was 186 % of control; the T/C (dose: 16.0 mg/kg/injection, schedule: Q03HX016 (ip), vehicle: saline) is 95 % of control. Besides, the T/C (dose: 16.0 mg/kg/injection, schedule: Q04DX003 (ip), vehicle: Klucel (hydroxypropylcellulose) (HPC)) was 169 % of control; the T/C (dose: 16.0 mg/kg/injection, schedule: Q08DX002 (ip), vehicle: saline) was 154 % of control; the T/C (dose: 16.7 mg/kg/injection, schedule: Q01DX009 (ip), vehicle: saline + alcohol) is 120 % of control; the T/C (dose: 20.0 mg/kg/injection, schedule: Q01DX009 (ip), vehicle: saline with Tween-80) is 187 % of control; the T/C (dose: 20.0 mg/kg/injection, schedule: Q04DX002 (ip), vehicle: saline with Tween-80) was 163 % of control; the T/C (dose: 27.8 mg/kg/injection, schedule: Q01DX009 (ip), vehicle: saline + alcohol) is 59 % of control. The T/C was 109 % of control (dose: 32.0 mg/kg/injection, schedule: Q01DX001 (sc), vehicle: saline); 100 % of control (dose: 32.0 mg/kg/injection, schedule: Q04DX003 (ip), vehicle: Klucel (hydroxypropylcellulose) (HPC)); 190 % of control (dose: 32.0 mg/kg/injection, schedule: Q04DX003 (ip), vehicle: saline); 154 % of control and 212 % of control (dose: 32.0 mg/kg/injection, schedule: Q04DX003 (ip), vehicle: water); 190 % of control (dose: 32.0 mg/kg/injection, schedule: Q08DX002 (ip), vehicle: saline); 113 % of control (dose: 64.0 mg/kg/injection, schedule: Q01DX001 (sc), vehicle: saline).
On to `Cc1cc2nc(C/C(=N/O)c3ccncc3)c(C/C(=N/O)c3ccncc3)nc2cc1C`, for which the T/C is, setting by setting: under setting [2], 93 % of control; under setting [3], 91 % of control.
As to `CC(=O)OCC12CCC(C)=CC1OC1C(OS(C)(=O)=O)C(=O)C2(C)C12CO2` (stereo unspecified), the T/C is, setting by setting: (dose: 0.5 mg/kg/injection, schedule: Q01DX009 (ip), vehicle: saline) 100 % of control; (dose: 1.0 mg/kg/injection, schedule: Q01DX009 (ip), vehicle: saline) 103 % of control; (dose: 2.0 mg/kg/injection, schedule: Q01DX009 (ip), vehicle: saline) 109 % of control; under setting [1], 110 % of control.
On to `CCCCNc1ccc(-c2c(N)nc(N)nc2CC)cc1[N+](=O)[O-]`, for which the T/C reads like this: under setting [2], 111 % of control and 118 % of control; under setting [3], 121 % of control; (dose: 240.0 mg/kg/injection, schedule: Q01DX005 (ip), vehicle: saline with Tween-80) 206 % of control; (dose: 480.0 mg/kg/injection, schedule: Q01DX005 (ip), vehicle: saline with Tween-80) 158 % of control.
As for `N#CCc1c(C2(c3ccncc3)OCCO2)[nH]c2ccccc12`, the T/C by setting is: (dose: 100.0 mg/kg/injection, schedule: Q01DX001 (ip), vehicle: saline) 104 % of control; (dose: 200.0 mg/kg/injection, schedule: Q01DX001 (ip), vehicle: saline) 113 % of control; (dose: 400.0 mg/kg/injection, schedule: Q01DX001 (ip), vehicle: saline) 98 % of control.
As to `c1ccc2c(c1)Cc1ccccc1N2CCN1CCCCC1`, the T/C was 101 % of control (dose: 50.0 mg/kg/injection, schedule: Q01DX005 (ip), vehicle: saline) and 104 % of control (dose: 100.0 mg/kg/injection, schedule: Q01DX005 (ip), vehicle: saline).
As for `Cc1nn(C)pc1P(C)(=S)n1nc(N(C)C)np1` (stereo unspecified), the T/C was 98 % of control (dose: 50.0 mg/kg/injection, schedule: Q01DX005 (ip), vehicle: Klucel (hydroxypropylcellulose) (HPC)) and 103 % of control (dose: 100.0 mg/kg/injection, schedule: Q01DX005 (ip), vehicle: Klucel (hydroxypropylcellulose) (HPC)).
